Active and inactive are the calls of the source. The rule behind the calls is not given here.
Experiments:
[1] = system: Aspergillus fumigatus; assay: Antifungal activity against Aspergillus fumigatus determined as diameter of inhibition zone at a concentration of 10 ug/disk (expt 2); format: functional, organism-based
[2] = system: Candida albicans; assay: Antifungal activity against Candida albicans determined as diameter of inhibition zone at a concentration of 10 ug/disk (expt 1); format: functional, organism-based
[3] = system: Penicillium citrinum; assay: Antifungal activity against Penicillium citrium determined as diameter of inhibition zone at a concentration of 10 ug/disk (expt 1); format: functional, organism-based
[4] = system: Penicillium citrinum; assay: Antifungal activity against Penicillium citrium determined as diameter of inhibition zone at a concentration of 10 ug/disk (expt 2); Not effective; format: functional, organism-based
[5] = system: Saccharomyces cerevisiae; assay: Antifungal activity against Saccharomyces cerevisiae determined as diameter of inhibition zone at a concentration of 10 ug/disk (expt 1); format: functional, organism-based
[6] = system: Saccharomyces cerevisiae; assay: Antifungal activity against Saccharomyces cerevisiae determined as diameter of inhibition zone at a concentration of 10 ug/disk (expt 2); format: functional, organism-based
[7] = system: Aspergillus fumigatus; assay: Antifungal activity against Aspergillus fumigatus determined as diameter of inhibition zone at a concentration of 10 ug/disk (expt 1); format: functional, organism-based
[8] = system: Candida albicans; assay: Antifungal activity against Candida albicans determined as diameter of inhibition zone at a concentration of 10 ug/disk (expt 2); format: functional, organism-based
[9] = system: Candida albicans; assay: Antifungal activity against Candida albicans determined as diameter of inhibition zone at a concentration of 0.1 ug/disk; Not effective; format: functional, organism-based
[10] = system: Fusarium solani; assay: Antifungal activity against Fusarium solani determined as diameter of inhibition zone at a concentration of 0.1 ug/disk; Not effective; format: functional, organism-based
[11] = system: Penicillium citrinum; assay: Antifungal activity against Penicillium citrium determined as diameter of inhibition zone at a concentration of 0.1 ug/disk; Not effective; format: functional, organism-based
[12] = system: Penicillium citrinum; assay: Antifungal activity against Penicillium citrium determined as diameter of inhibition zone at a concentration of 1 ug/disk; Not effective; format: functional, organism-based
[13] = system: Saccharomyces cerevisiae; assay: Antifungal activity against Saccharomyces cerevisiae determined as diameter of inhibition zone at a concentration of 0.1 ug/disk; Slightly effective; format: functional, organism-based
[14] = system: Aspergillus fumigatus; assay: Antifungal activity against Aspergillus fumigatus determined as diameter of inhibition zone at a concentration of 0.1 ug/disk; Slightly effective; format: functional, organism-based
[15] = system: Candida albicans; assay: Antifungal activity against Candida albicans determined as diameter of inhibition zone at a concentration of 1 ug/disk; Not effective; format: functional, organism-based
[16] = system: Fusarium solani; assay: Antifungal activity against Fusarium solani determined as diameter of inhibition zone at a concentration of 1 ug/disk; Not effective; format: functional, organism-based
[17] = system: Penicillium citrinum; assay: Antifungal activity against Penicillium citrium determined as diameter of inhibition zone at a concentration of 10 ug/disk; Not effective; format: functional, organism-based
[18] = system: Saccharomyces cerevisiae; assay: Antifungal activity against Saccharomyces cerevisiae determined as diameter of inhibition zone at a concentration of 0.1 ug/disk; Not effective; format: functional, organism-based
[19] = system: Saccharomyces cerevisiae; assay: Antifungal activity against Saccharomyces cerevisiae determined as diameter of inhibition zone at a concentration of 1 ug/disk; Not effective; format: functional, organism-based
[20] = system: Aspergillus fumigatus; assay: Antifungal activity against Aspergillus fumigatus determined as diameter of inhibition zone at a concentration of 10 ug/disk; format: functional
[21] = system: Aspergillus fumigatus; assay: Antifungal activity against Aspergillus fumigatus determined as diameter of inhibition zone at a concentration of 1 ug/disk; Slightly effective; format: functional, organism-based
[22] = system: Candida albicans; assay: Antifungal activity against Candida albicans determined as diameter of inhibition zone at a concentration of 1 ug/disk; Slightly effective; format: functional, organism-based
[23] = system: Candida albicans; assay: Antifungal activity against Candida albicans determined as diameter of inhibition zone at a concentration of 10 ug/disk; format: functional
[24] = system: Fusarium solani; assay: Antifungal activity against Fusarium solani determined as diameter of inhibition zone at a concentration of 10 ug/disk; Not effective; format: functional, organism-based
[25] = system: Saccharomyces cerevisiae; assay: Antifungal activity against Saccharomyces cerevisiae determined as diameter of inhibition zone at a concentration of 1 ug/disk; Slightly effective; format: functional, organism-based
[26] = system: Saccharomyces cerevisiae; assay: Antifungal activity against Saccharomyces cerevisiae determined as diameter of inhibition zone at a concentration of 10 ug/disk; format: functional

**Q.** NYSTATIN was tested. Which Diameter of inhibition zone [1] did it give?
**A.** 8 mm

**Q.** What about the Diameter of inhibition zone [2] of the same compound?
**A.** 16 mm

**Q.** And the Diameter of inhibition zone [3]?
**A.** 10 mm

**Q.** What about the “Diameter of inhibition zone” value [4] of the same compound?
**A.** inactive

**Q.** And the Diameter of inhibition zone [5]?
**A.** 17 mm

**Q.** What about the Diameter of inhibition zone [6] of the same compound?
**A.** 8 mm

**Q.** What about the Diameter of inhibition zone [7] of the same compound?
**A.** 12 mm

**Q.** And the Diameter of inhibition zone [8]?
**A.** 10 mm

**Q.** For `C=CC(C)(C)O[C@H]1COc2ccc(/C=C/C(OC)=C(C)\C(=C\OC)C(=O)OC)cc2OC1(C)C`, which “Diameter of inhibition zone” value [9] is on record?
**A.** inactive

**Q.** And the “Diameter of inhibition zone” value [10]?
**A.** inactive

**Q.** What about the “Diameter of inhibition zone” value [11] of the same compound?
**A.** inactive

**Q.** What about the “Diameter of inhibition zone” value [12] of the same compound?
**A.** inactive

**Q.** What about the “Diameter of inhibition zone” value [13] of the same compound?
**A.** Slightly effective

**Q.** And the “Diameter of inhibition zone” value [14]?
**A.** Slightly effective

**Q.** Which “Diameter of inhibition zone” value [9] does the source give for `C=CC(C)(C)OC(C)(C)[C@@H]1COc2ccc(/C=C/C(OC)=C(C)\C(=C/OC)C(=O)OC)cc2O1` here?
**A.** inactive

**Q.** What about the “Diameter of inhibition zone” value [15] of the same compound?
**A.** inactive

**Q.** And the “Diameter of inhibition zone” value [10]?
**A.** inactive

**Q.** And the “Diameter of inhibition zone” value [16]?
**A.** inactive

**Q.** What about the “Diameter of inhibition zone” value [11] of the same compound?
**A.** inactive

**Q.** What about the “Diameter of inhibition zone” value [12] of the same compound?
**A.** inactive

**Q.** What about the “Diameter of inhibition zone” value [17] of the same compound?
**A.** inactive

**Q.** And the “Diameter of inhibition zone” value [18]?
**A.** inactive

**Q.** What about the “Diameter of inhibition zone” value [14] of the same compound?
**A.** Slightly effective

**Q.** What about the “Diameter of inhibition zone” value [19] of the same compound?
**A.** inactive

**Q.** For `C=CC(C)(C)OC(C)(C)[C@H]1COc2ccc(/C=C/C(OC)=C(C)\C(=C/OC)C(=O)OC)cc2O1`, which Diameter of inhibition zone [20] is on record?
**A.** 8 mm

**Q.** And the “Diameter of inhibition zone” value [21]?
**A.** Slightly effective

**Q.** And the “Diameter of inhibition zone” value [9]?
**A.** inactive

**Q.** What about the “Diameter of inhibition zone” value [22] of the same compound?
**A.** Slightly effective

**Q.** And the Diameter of inhibition zone [23]?
**A.** 8 mm

**Q.** And the “Diameter of inhibition zone” value [10]?
**A.** inactive

**Q.** What about the “Diameter of inhibition zone” value [16] of the same compound?
**A.** inactive

**Q.** And the “Diameter of inhibition zone” value [24]?
**A.** inactive

**Q.** And the “Diameter of inhibition zone” value [11]?
**A.** inactive

**Q.** And the “Diameter of inhibition zone” value [12]?
**A.** inactive

**Q.** And the “Diameter of inhibition zone” value [17]?
**A.** inactive

**Q.** What about the “Diameter of inhibition zone” value [18] of the same compound?
**A.** inactive

**Q.** And the “Diameter of inhibition zone” value [25]?
**A.** Slightly effective

**Q.** What about the Diameter of inhibition zone [26] of the same compound?
**A.** 8 mm

**Q.** And the “Diameter of inhibition zone” value [14]?
**A.** Slightly effective
